Patent publication US20100311714A1, “1H-IMIDAZO[4,5-c]QUINOLINONE COMPOUNDS” (priority 2009, published 2010)
Read-outs that look alike come from different tables or passages of the source.

What was measured:
PI3K beta = target: T1, PI3K beta (Homo sapiens, UniProt P42338); assay: PI3K beta kinase assay (Kinase-Glo luminescence); format: biochemical
T1 construct: for the full-length p110-b subunit are generated and fused by overlapping PCR; His tag (C); made in house; host or cells: baculovirus BV949; Tn5 (Trichoplusia ni) or TiniPro insect cells
T1 sequence (P42338 with tags, fused parts or gaps limits assumed): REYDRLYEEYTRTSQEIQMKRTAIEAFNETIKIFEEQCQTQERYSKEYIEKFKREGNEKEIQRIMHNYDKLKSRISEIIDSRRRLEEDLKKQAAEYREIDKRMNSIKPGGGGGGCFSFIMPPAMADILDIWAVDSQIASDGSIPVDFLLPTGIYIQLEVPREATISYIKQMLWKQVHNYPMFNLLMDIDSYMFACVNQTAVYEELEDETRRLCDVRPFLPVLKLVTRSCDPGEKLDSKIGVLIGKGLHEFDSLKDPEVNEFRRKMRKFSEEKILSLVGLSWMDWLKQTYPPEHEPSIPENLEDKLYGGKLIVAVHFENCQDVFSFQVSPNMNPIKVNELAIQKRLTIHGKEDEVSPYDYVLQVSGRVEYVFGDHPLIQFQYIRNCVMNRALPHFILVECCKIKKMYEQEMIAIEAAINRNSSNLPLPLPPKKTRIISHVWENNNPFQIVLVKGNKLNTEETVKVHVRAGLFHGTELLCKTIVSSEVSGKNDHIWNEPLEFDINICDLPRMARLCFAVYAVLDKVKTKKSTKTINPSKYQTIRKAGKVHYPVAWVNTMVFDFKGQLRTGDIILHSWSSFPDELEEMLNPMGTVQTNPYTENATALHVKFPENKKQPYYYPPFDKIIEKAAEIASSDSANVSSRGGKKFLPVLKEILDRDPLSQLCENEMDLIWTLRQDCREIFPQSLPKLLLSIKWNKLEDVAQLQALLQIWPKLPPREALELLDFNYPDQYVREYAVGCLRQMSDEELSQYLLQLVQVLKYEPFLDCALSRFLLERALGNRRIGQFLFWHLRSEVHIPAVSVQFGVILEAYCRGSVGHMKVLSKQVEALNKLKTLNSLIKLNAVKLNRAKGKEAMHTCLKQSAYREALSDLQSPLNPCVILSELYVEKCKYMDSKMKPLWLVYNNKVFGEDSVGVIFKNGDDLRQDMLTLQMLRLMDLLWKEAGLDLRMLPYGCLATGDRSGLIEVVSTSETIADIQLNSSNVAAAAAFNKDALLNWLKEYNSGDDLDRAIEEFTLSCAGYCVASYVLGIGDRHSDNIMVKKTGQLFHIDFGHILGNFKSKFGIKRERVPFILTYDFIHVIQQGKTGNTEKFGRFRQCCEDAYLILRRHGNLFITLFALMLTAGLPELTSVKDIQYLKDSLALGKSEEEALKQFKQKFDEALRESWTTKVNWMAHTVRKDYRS
Summary of the method: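 Kinase-Glo luminescence read out ATP left after a 60-min room-temperature reaction, started with ATP (1 μM final) on 25 nM His-tagged p85 iSH2–p110β (BV949) plus 10 μg/mL PI substrate in pH 7.5 Tris buffer. Percent inhibition at eight concentrations was fitted to a four-parameter logistic model for IC50.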

PI3K alfa = target: T2, PI3K alfa (Homo sapiens, UniProt P42336); assay: PI3K alpha kinase assay (Kinase-Glo luminescence); format: biochemical
T2 construct: His tag (C); made in house; host or cells: baculovirus BV1075; Tn5 (Trichoplusia ni) or TiniPro insect cells
T2 sequence (P42336 with tags, fused parts or gaps limits assumed): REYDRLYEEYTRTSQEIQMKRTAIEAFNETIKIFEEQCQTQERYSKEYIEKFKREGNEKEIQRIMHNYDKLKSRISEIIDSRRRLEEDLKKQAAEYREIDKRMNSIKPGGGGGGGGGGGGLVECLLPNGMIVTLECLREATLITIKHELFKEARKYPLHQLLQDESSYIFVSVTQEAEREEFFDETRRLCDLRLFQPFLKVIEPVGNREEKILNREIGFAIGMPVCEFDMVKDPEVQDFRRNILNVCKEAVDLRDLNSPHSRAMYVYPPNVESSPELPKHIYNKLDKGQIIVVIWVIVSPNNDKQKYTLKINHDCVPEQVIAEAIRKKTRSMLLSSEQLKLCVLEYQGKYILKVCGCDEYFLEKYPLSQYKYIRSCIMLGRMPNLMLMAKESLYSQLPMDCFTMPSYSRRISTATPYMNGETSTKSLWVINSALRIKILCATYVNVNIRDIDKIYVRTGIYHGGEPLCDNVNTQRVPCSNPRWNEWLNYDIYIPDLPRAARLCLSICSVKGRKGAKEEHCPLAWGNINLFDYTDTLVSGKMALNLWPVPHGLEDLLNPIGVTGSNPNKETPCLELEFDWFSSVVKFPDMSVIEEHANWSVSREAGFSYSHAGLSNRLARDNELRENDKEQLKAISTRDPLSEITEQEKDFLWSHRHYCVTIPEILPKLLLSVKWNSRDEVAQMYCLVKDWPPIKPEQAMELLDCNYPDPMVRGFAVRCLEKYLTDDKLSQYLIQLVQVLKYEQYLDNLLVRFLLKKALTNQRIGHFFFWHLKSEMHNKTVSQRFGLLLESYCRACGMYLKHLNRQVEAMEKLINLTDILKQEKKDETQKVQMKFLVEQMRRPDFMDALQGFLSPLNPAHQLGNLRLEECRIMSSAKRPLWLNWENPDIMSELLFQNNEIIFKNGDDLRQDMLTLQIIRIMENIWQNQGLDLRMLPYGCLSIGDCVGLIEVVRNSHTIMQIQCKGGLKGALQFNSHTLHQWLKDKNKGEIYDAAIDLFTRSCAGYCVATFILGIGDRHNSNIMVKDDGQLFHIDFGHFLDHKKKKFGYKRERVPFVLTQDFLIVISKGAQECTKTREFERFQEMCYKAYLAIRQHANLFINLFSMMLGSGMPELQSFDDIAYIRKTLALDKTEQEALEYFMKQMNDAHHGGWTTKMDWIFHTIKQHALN
Summary of the method: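 IC50 values come from a four-parameter logistic fit of percent inhibition at eight concentrations, typically 10 to 0.003 μM. Recombinant PI3Kα at 10 nM turned over 1 μM ATP with 10 μg/mL PI for 60 min at room temperature, and residual ATP was measured by Kinase-Glo.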

Row | SMILES | IC50 (PI3K beta; read-out: EPK_PI3Kbeta/IC50) [nM] | IC50 (PI3K alfa; read-out: EPK_PI3Kalfa/IC50) [nM] | IC50 (PI3K beta; read-out: PI3Kbeta/IC50) [nM] | IC50 (PI3K alfa; read-out: PI3Kalfa/IC50) [nM]
1 | CCOc1ccc(-c2ccc3ncc4c(c3c2)n(-c2ccc(OCCOC)nc2C)c(=O)n4C)cn1 [Example 13.1, 8-(6-Ethoxy-pyridin-3-yl)-1-[6-(2-methoxy-ethoxy)-2-methyl-pyridin-3-yl]-3-methyl-1,3-dihydro-imidazo[4,5-c]quinolin-2-one] | 1950 | 158 |  | 
2 | COc1ncccc1-n1c(=O)n(C)c2cnc3ccc(-c4cnc(N)c(C(F)(F)F)c4)cc3c21 [Example 1.3, 8-(6-Amino-5-trifluoromethyl-pyridin-3-yl)-1-(2-methoxy-pyridin-3-yl)-3-methyl-1,3-dihydro-imidazo[4,5-c]quinolin-2-one] |  |  | 23 | 10
3 | CCOc1ccc(-c2ccc3ncc4c(c3c2)n(-c2ccc(N(C)CCOC)nc2C)c(=O)n4C)cn1 [Example 15.3, 8-(6-Ethoxy-pyridin-3-yl)-1-{6-[(2-methoxy-ethyl)-methyl-amino]-2-methyl-pyridin-3-yl}-3-methyl-1,3-dihydro-imidazo[4,5-c]quinolin-2-one] | 793 | 103 |  | 
4 | COCCOc1ccc(-n2c(=O)n(C)c3cnc4ccc(-c5cnc(COC)c(OC)c5)cc4c32)c(C)n1 [Example 22.3, 1-[6-(2-Methoxy-ethoxy)-2-methyl-pyridin-3-yl]-8-(5-methoxy-6-methoxymethyl-pyridin-3-yl)-3-methyl-1,3-dihydro-imidazo[4,5-c]quinolin-2-one] | 122 | 164 |  | 
5 | COCCOc1cc(-c2ccc3ncc4c(c3c2)n(-c2ccc(OC)nc2OC)c(=O)n4C)cnc1C [Example 8.9, 1-(2,6-Dimethoxy-pyridin-3-yl)-8-[5-(2-methoxy-ethoxy)-6-methyl-pyridin-3-yl]-3-methyl-1,3-dihydro-imidazo[4,5-c]quinolin-2-one] | 43 | 11 |  | 
6 | CNc1ncc(-c2ccc3ncc4c(c3c2)n(-c2ccc(F)nc2C)c(=O)n4C)cc1C(F)(F)F [Example 7.13, 1-(6-Fluoro-2-methyl-pyridin-3-yl)-3-methyl-8-(6-methylamino-5-trifluoromethyl-pyridin-3-yl)-1,3-dihydro-imidazo[4,5-c]quinolin-2-one] | 42 | 11 |  | 
7 | CNc1ccc(-c2ccc3ncc4c(c3c2)n(-c2ccc(N(C)CCOC)nc2C)c(=O)n4C)cn1 [Example 15.4, 1-{6-[(2-Methoxy-ethyl)-methyl-amino]-2-methyl-pyridin-3-yl}-3-methyl-8-(6-methylamino-pyridin-3-yl)-1,3-dihydro-imidazo[4,5-c]quinolin-2-one] | 407 | 46 |  | 
8 | COCCN(C)c1ccc(-n2c(=O)n(C)c3cnc4ccc(-c5cncc(N)c5)cc4c32)c(C)n1 [Example 15.8, 8-(5-Amino-pyridin-3-yl)-1-{6-[(2-methoxy-ethyl)-methyl-amino]-2-methyl-pyridin-3-yl}-3-methyl-1,3-dihydro-imidazo[4,5-c]quinolin-2-one] | 98 | 49 |  | 
9 | COCC(=O)Nc1ccc(-n2c(=O)n(C)c3cnc4ccc(-c5cncc(N)c5)cc4c32)c(C)n1 [Example 20.1, N-{5-[8-(5-Amino-pyridin-3-yl)-3-methyl-2-oxo-2,3-dihydro-imidazo[4,5-c]quinolin-1-yl]-6-methyl-pyridin-2-yl}-2-methoxy-acetamide] | 38 | 50 |  | 
10 | CNc1ncc(-c2ccc3ncc4c(c3c2)n(-c2cccnc2C)c(=O)n4C)cn1 [Example 2.2, 3-Methyl-8-(2-methylamino-pyrimidin-5-yl)-1-(2-methyl-pyridin-3-yl)-1,3-dihydro-imidazo[4,5-c]quinolin-2-one] |  |  | 165 | 26
11 | CNC(=O)c1cc(-c2ccc3ncc4c(c3c2)n(-c2ccc(F)nc2C)c(=O)n4C)cnc1N [Example 7.14, 2-Amino-5-[1-(6-fluoro-2-methyl-pyridin-3-yl)-3-methyl-2-oxo-2,3-dihydro-1H-imidazo[4,5-c]quinolin-8-yl]-N-methyl-nicotinamide] | 14 | 11 |  | 
12 | COc1nc(N2CCNCC2)ccc1-n1c(=O)n(C)c2cnc3ccc(-c4cnc(N(C)C)nc4)cc3c21 [Example 9.4, 8-(2-Dimethylamino-pyrimidin-5-yl)-1-(2-methoxy-6-piperazin-1-yl-pyridin-3-yl)-3-methyl-1,3-dihydro-imidazo[4,5-c]quinolin-2-one] | 142 | 15 |  | 
13 | CNc1ccc(-c2ccc3ncc4c(c3c2)n(-c2ccc(N3CCCC3)nc2C)c(=O)n4C)cn1 [Example 25.1, 3-Methyl-8-(6-methylamino-pyridin-3-yl)-1-(2-methyl-6-pyrrolidin-1-yl-pyridin-3-yl)-1,3-dihydro-imidazo[4,5-c]quinolin-2-one] | 1520 | 35 |  | 
14 | COc1ccc(-c2ccc3ncc4c(c3c2)n(-c2ncccc2C)c(=O)n4C)cn1 [Example 3.13, 8-(6-Methoxy-pyridin-3-yl)-3-methyl-1-(3-methyl-pyridin-2-yl)-1,3-dihydro-imidazo[4,5-c]quinolin-2-one] |  |  |  | 90
15 | COc1ncccc1-n1c(=O)n(C)c2cnc3ccc(-c4cnc(N(C)C)nc4)cc3c21 [Example 1.9, 8-(2-Dimethylamino-pyrimidin-5-yl)-1-(2-methoxy-pyridin-3-yl)-3-methyl-1,3-dihydro-imidazo[4,5-c]quinolin-2-one] |  |  |  | 71

Results, then the compound that gave them:

Row | IC50 (PI3K beta; read-out: EPK_PI3Kbeta/IC50) [nM] | IC50 (PI3K alfa; read-out: EPK_PI3Kalfa/IC50) [nM] | IC50 (PI3K beta; read-out: PI3Kbeta/IC50) [nM] | IC50 (PI3K alfa; read-out: PI3Kalfa/IC50) [nM] | SMILES
16 | 6 | < 3 |  |  | CCNc1cc(-c2ccc3ncc4c(c3c2)n(-c2ccc(OC)nc2C)c(=O)n4C)cnc1C [Example 11.7, 8-(5-Ethylamino-6-methyl-pyridin-3-yl)-1-(6-methoxy-2-methyl-pyridin-3-yl)-3-methyl-1,3-dihydro-imidazo[4,5-c]quinolin-2-one]
17 | 68 | 14 |  |  | CNc1cc(-c2ccc3ncc4c(c3c2)n(-c2ccc(N(C)C)nc2C)c(=O)n4C)cnc1C [Example 19.2, 1-(6-Dimethylamino-2-methyl-pyridin-3-yl)-3-methyl-8-(6-methyl-5-methylamino-pyridin-3-yl)-1,3-dihydro-imidazo[4,5-c]quinolin-2-one]
18 | 1340 | 80 |  |  | COc1ccc(-n2c(=O)n(C)c3cnc4ccc(-c5ccc6nccn6c5)cc4c32)c(OC)n1 [Example 8.10, 1-(2,6-Dimethoxy-pyridin-3-yl)-8-imidazo[1,2-a]pyridin-6-yl-3-methyl-1,3-dihydro-imidazo[4,5-c]quinolin-2-one]
19 | 34 | 7 |  |  | Cc1nc(N2CC(F)(F)C(F)(F)C2)ccc1-n1c(=O)n(C)c2cnc3ccc(-c4cncc(C(C)(C)O)c4)cc3c21 [Example 35.1, 8-[5-(1-Hydroxy-1-methyl-ethyl)-pyridin-3-yl]-3-methyl-1-[2-methyl-6-(3,3,4,4-tetrafluoro-pyrrolidin-1-yl)-pyridin-3-yl]-1,3-dihydro-imidazo[4,5-c]quinolin-2-one]
20 | 261 | 27 |  |  | Cc1cc(F)ncc1-n1c(=O)n(C)c2cnc3ccc(-c4cnc5c(ccn5C)c4)cc3c21 [Example 16.5, 1-(6-Fluoro-4-methyl-pyridin-3-yl)-3-methyl-8-(1-methyl-1H-pyrrolo[2,3-b]pyridin-5-yl)-1,3-dihydro-imidazo[4,5-c]quinolin-2-one]
21 | 194 | 59 |  |  | CCOCc1cc(-c2ccc3ncc4c(c3c2)n(-c2ccc(F)nc2C)c(=O)n4C)cnc1N [Example 7.15, 8-(6-Amino-5-ethoxymethyl-pyridin-3-yl)-1-(6-fluoro-2-methyl-pyridin-3-yl)-3-methyl-1,3-dihydro-imidazo[4,5-c]quinolin-2-one]
22 | 15 | 23 |  |  | COCCN(C)c1ccc(-n2c(=O)n(C)c3cnc4ccc(-c5cnc(CO)c(OC)c5)cc4c32)c(C)n1 [Example 15.9, 8-(6-Hydroxymethyl-5-methoxy-pyridin-3-yl)-1-{6-[(2-methoxy-ethyl)-methyl-amino]-2-methyl-pyridin-3-yl}-3-methyl-1,3-dihydro-imidazo[4,5-c]quinolin-2-one]
23 |  |  | 23 | 11 | COc1ccc(-n2c(=O)n(C)c3cnc4ccc(-c5cnc(N)c(C(F)(F)F)c5)cc4c32)c(OC)n1 [Example 8.1, 8-(6-Amino-5-trifluoromethyl-pyridin-3-yl)-1-(2,6-dimethoxy-pyridin-3-yl)-3-methyl-1,3-dihydro-imidazo[4,5-c]quinolin-2-one]
24 |  |  |  | 58 | COc1ncccc1-n1c(=O)n(C)c2cnc3ccc(-c4ccc(F)nc4)cc3c21 [Example 1.8, 8-(6-Fluoro-pyridin-3-yl)-1-(2-methoxy-pyridin-3-yl)-3-methyl-1,3-dihydro-imidazo[4,5-c]quinolin-2-one]
25 |  |  |  | 70 | Cc1cccnc1-n1c(=O)n(C)c2cnc3ccc(-c4cnc5ccccc5c4)cc3c21 [Example 3.8, 3-Methyl-1-(3-methyl-pyridin-2-yl)-8-quinolin-3-yl-1,3-dihydro-imidazo[4,5-c]quinolin-2-one]
26 |  |  |  | 134 | COc1ncccc1-n1c(=O)n(C)c2cnc3ccc(-c4cnc5c(ccn5C)c4)cc3c21 [Example 1.7, 1-(2-Methoxy-pyridin-3-yl)-3-methyl-8-(1-methyl-1H-pyrrolo[2,3-b]pyridin-5-yl)-1,3-dihydro-imidazo[4,5-c]quinolin-2-one]
